Experiments:
[1] = Phase II 24-week interim analysis in non-diabetic obese and overweight subjects (NCT05295875, Example 4); format: in vivo, human
Description: Results presented in this example correspond to a 24-week interim analysis obtained from a placebo-controlled phase II study (ClinicalTrials.gov Identifier: NCT05295875) evaluating pemvidutide (ALT-801) in obese and overweight subjects. It is estimated that 70 to 75% subjects of this population have NAFLD while 34% may have NASH (Quek J. et al. Global prevalence of non-alcoholic fatty liver disease and non-alcoholic steatohepatitis in the overweight and obese population: a systematic review and meta-analysis. Lancet Gastroenterol Hepatol. 2023 January; 8(1):20-30). Key eligibility criteria were: (1) Men and women, ages 18-75 years; (2) at least one unsuccessful weight loss attempt per Investigator judgement; (3) Body Mass Index (BMI) ≥30 kg/m2 or BMI ≥27 kg/m2 with at least one obesity-related comorbidity (history of cardiovascular disease, hypertension, dyslipidemia, pre-diabetes or obstructive sleep apnea) and (4) non-diabetes (HbA1c ≤6.5% and fasting glucose ≤125 mg/dL). Eligible subjects were randomized 1:1:1:1 to one of the following treatment arms: Group 1 (39 subjects): pemvidutide 1.2 mg SC once weekly for 24 weeks; Group 2 (40 subjects): pemvidutide 1.8 mg administered subcutaneously once weekly for 24 weeks; Group 3 (40 subjects): pemvidutide 0.6 mg administered subcutaneously for 1 week, 1.2 mg administered subcutaneously for 1 week, 1.8 mg administered subcutaneously once weekly for 2 weeks, followed by 2.4 mg administered subcutaneously once weekly for 20 additional weeks (in sequence) and Group 4 (41 subjects): Placebo administered subcutaneously once weekly for 24 weeks. The randomization of subjects was stratified based on sex and baseline body mass index (BMI <35 kg/m2 vs. ≥35 kg/m2). A minimum of 25% of randomized subjects were male. All subjects received counselling on a reduced-calorie diet of 1200-1500 calories for individuals <250 lbs (113.6 kg) and 1500-1800 calories for individuals ≥250 lbs (113.6 kg) and a gradual increase in physical activity (targeting 150 min of physical activity per week) by a qualified healthcare professional at screening and at subsequent visits during the treatment period. Subjects were instructed to record their food intake and physical activity daily, and compliance with lifestyle interventions will be assessed by the investigator on a regular basis. A subgroup of subjects were subjected MRI-PDFF to evaluate the hepatic fat fraction in as well as composition to measure total body adipose tissue (AT) and adipose tissue-free mass (ATFM).
FIG. 27 presents the mean percentage weight loss over time in all evaluated subjects across the three pemvidutide doses and placebo over 24 weeks. Results are presented as efficacy estimand that assumes subjects remained on treatment for the entire duration, with missing values handled by Mixed Models for Repeated Measures. […] FIG. 28 presents the mean percentage weight loss (presented as efficacy estimand as described above) that was achieved over 24 weeks with pemvidutide and placebo in a subgroup of subjects with baseline body weight ≤115 kg. […] This phenomenon may relate to a lower level of drug exposure in subjects with higher body weight, and would support the possibility to increase dose levels in this population to maximize efficacy. FIG. 29 presents a weight loss responder analysis based on calculation of percentage of subjects who respectively achieve ≥5%, ≥10% and ≥15% weight loss across the three pemvidutide doses and placebo. FIG. 30 presents the percentage weight loss achieved across the four groups comparing Hispanic versus non-Hispanic subjects. […] Waist circumference is an index of central or abdominal obesity recommended by the WHO to assess the risk of metabolic diseases such as NAFLD and NASH and cardiovascular diseases.

[2] = Phase 1b 24-week NAFLD study (Example 3): body weight loss; format: in vivo, human; settings: for weight loss: Week 24
Description: Provided herein is disclosure of a 12-week extension study of the study provided in Example 1, providing a 24-week a Phase 1b, randomized, double-blind, placebo-controlled study to assess the effects of pemvidutide (also termed herein as ALT-801), the safety of pemvidutide and effects on weight loss, hepatic fat fraction, anthropometric parameters, lipid metabolism, as well as inflammatory, fibrosis and other markers in diabetic and non-diabetic (type 2 diabetes) overweight and obese (BMI≥28.0 kg/m^2) subjects with NAFLD (defined as liver fat content (LFC) by MRI-PDFF ≥10%; absence of significant fibrosis, defined as FibroScan® LSM ≤10 kPa), alanine aminotransferase (ALT) and aspartate aminotransferase (AST) laboratory values of ≤75 IU/L and HbA1c <9.5. Men and women aged 18-65 years were studied. Diabetic subjects were defined as those that have undergone stable dose (≥3 months) metformin or SLGT-2 therapy and no use of insulin, sulfonylureas, DPP-4, GLP-1 treatment; Ninety-four (94) subjects were enrolled in the initial 12-week Phase 1b NAFLD trial and 83 subjects who completed were invited to receive a total of 12 additional weeks of blinded treatment. Of those subjects, 66 consented to rollover, of which 64 were eligible to participate.
The primary endpoint of this study was a reduction in liver fat content (LFC) by MRI-PDFF at Week 24 compared to Week 0 (zero). Key secondary endpoints include percent (%) weight loss at Week 24 compared to Week 0 (zero), and liver inflammation by alanine aminotransferase (ALT) levels and corrected T1 (cT1) imaging at Week 24 as compared to Week 0 (zero). Adverse events (AEs), including serious and severe AEs, AEs leading to discontinuation, GI tolerability, vital signs, and glycemic control including fasting glucose and HbA1c levels were also measured.

CC[C@H](C)[C@H](NC(=O)[C@H](Cc1ccccc1)NC(=O)[C@H](CCC(=O)O)NC(=O)[C@@H]1CCCCNC(=O)CC[C@H](NC(=O)[C@H](CC(=O)O)NC(=O)[C@H](CC(C)C)NC(=O)[C@H](Cc2ccc(O)cc2)NC(=O)[C@H](CCCCN)NC(=O)[C@H](CO)NC(=O)[C@H](Cc2ccc(O)cc2)NC(=O)[C@H](CC(=O)O)NC(=O)[C@H](CO)NC(=O)[C@@H](NC(=O)[C@H](Cc2ccccc2)NC(=O)[C@@H](NC(=O)CNC(=O)[C@H](CCC(N)=O)NC(=O)C(C)(C)NC(=O)[C@@H](N)Cc2c[nH]cn2)[C@@H](C)O)[C@H](C)O)C(=O)N[C@@H](CCCCNC(=O)C2O[C@@H](OCCCCCCCCCCCCCCCCCC(=O)O)C(O)C(O)[C@@H]2O)C(=O)N[C@@H](C)C(=O)N[C@@H](C)C(=O)N1)C(=O)N[C@@H](CCC(N)=O)C(=O)N[C@@H](Cc1c[nH]c2ccccc12)C(=O)N[C@@H](CC(C)C)C(=O)N[C@@H](CC(C)C)C(=O)N[C@@H](CCC(N)=O)C(=O)N[C@H](C(N)=O)[C@@H](C)O (stereo partly shown) [ALT-801, Pemvidutide]
heart rate ([1]; 1.2, 1.8, 2.4 mg, 24-week treatment): do not induce a significant change in heart rates
systolic and diastolic blood pressure ([1]; 24-week treatment): improves both systolic and diastolic blood pressures in a dose dependent manner
weight loss, Hispanic versus non-Hispanic subjects ([1]; 24 weeks): tend to lose less body weight
serum lipids ([1]; all doses, week 24): decreased as compared to baseline
waist circumference ([1]; all doses, week 24): significant reduction in waist circumference
mean percentage weight loss over time ([1]; all evaluated subjects, 1.2, 1.8, 2.4 mg, 24 weeks): progressive, dose-dependent weight loss
weight loss in subgroup vs all subjects ([1]; baseline body weight <=115 kg, 24 weeks): higher levels of weight loss
weight loss (in words) ([2]; Week 24 compared to Week 12): continued weight loss
weight loss ([2]; diabetic subjects): 5.3%
weight loss ([2]; non-diabetic subjects): 7.2%
